The subject of data set [1] is bleomycin-induced lung fibrosis. Kind of data set: Bleomycin-induced lung fibrosis model. It is filed as in vivo, mice. The following applies: therapeutic mode; Compound 1 3 mg/kg BID; pirfenidone 100 mg/kg BID; nintedanib 50 mg/kg QD, oral gavage. The method, then:
The reduction of lung fibrosis upon MCT4 inhibition is coupled with changes in serum metabolites that indicates turnover of extracellular matrix protein and increased fatty acid oxidation. […] The effects of Compound 1, alone or in combination with approved IPF drugs pirfenidone or nintedanib, were studied in the bleomycin-induced lung fibrosis model in therapeutic mode. Compound 1 was dosed at 3 mg/kg, BID; pirfenidone was dosed at 100 mg/kg, BID; and nintedanib was dosed at 50 mg/kg, QD, all via oral gavage.

Data set [2] can be described thus: Kinetic solubility in biorelevant media. It is filed as physicochemical. Particulars: for solubility at 1 h / solubility at 4 h / solubility at 24 h: thermodynamic from solid; for solubility at 1 h: t = 1 hour; for solubility at 4 h: t = 4 hours; for solubility at 24 h: t = 24 hours.
The nature of data set [3]: Dynamic vapor sorption (DVS). The following applies: 25° C. It counts as physicochemical. The source says: The Form B tris salt is an off-white crystalline powder consisting of small particles. […] (ΔH=111 J/g).
Data set [4] can be described thus: Solid-state stability of API, 2 weeks storage. It counts as physicochemical. On the procedure:
Stability of the solid API was assessed after storage at the following conditions for 2 weeks: • 25° C./58% RH (closed) • 25° C./58% RH (open) • 40° C./75% RH (closed) • 40° C./75% RH (open) • 80° C./ambient RH (closed)

Setting [5] is: fasted-state simulated gastric fluid (FaSSGF), fassgf or other biorelevant, FaSSGF pH 1.6, room temperature.
The mark [6] stands for this setting: fasted-state simulated intestinal fluid (FaSSIF), FaSSIF #2 pH 6.5, room temperature.
The mark [7] stands for this setting: fed-state simulated intestinal fluid (FeSSIF), FeSSIF #2 pH 5.8, room temperature.

This is an account of results in patent US20250179049A1, “SALTS OF HETEROCYCLIC INHIBITORS OF MONOCARBOXYLATE TRANSPORTER 4 FOR THE TREATMENT OF DISEASE” (Vettore, LLC, priority 2022, published 2025).

Each structure is given as a SMILES string. Where a name gives a salt, the structure may show the parent alone.

On to `COC(=O)c1ccc2c(c1)NC(=O)/C2=C(\Nc1ccc(N(C)C(=O)CN2CCN(C)CC2)cc1)c1ccccc1` [nintedanib, reference compound], for which the “Additive effect upon Ashcroft Score or αSMA quantitation when added to Compound 1” value in data set [1] was “did not produce a statistically significant additive effect”.

As to `Cc1ccc(=O)n(-c2ccccc2)c1` [pirfenidone, reference compound], the “Additive effect upon Ashcroft Score or αSMA quantitation when added to Compound 1” value in data set [1] is on record as “did not produce a statistically significant additive effect”.

On to `CC(C)(OCc1cc(-c2cccc(OC3CCC3)c2)n(-c2ccccc2N2CCC2)n1)C(=O)O` [tris salt Form B], for which, in data set [2] (FaSSGF after 1, 4 and 24 hours), the Solubility description entry was “practically insoluble”. Moreover, in data set [2] (setting [5]), the solubility – broadly, the concentration that dissolves in the medium under given conditions – at 1 h was 0.46 µg/mL; the solubility at 4 h was 0.35 µg/mL; the solubility at 24 h is 0.39 µg/mL. Moreover, in data set [2] (fasted-state simulated intestinal fluid (FaSSIF), pH 6.5, thermodynamic from solid, FaSSIF, before gradual decrease, read-out: Solubility, initial), the solubility is no less than 3000 µg/mL. In data set [2] (setting [6]), this molecule had a solubility at 1 h of 1110 µg/mL, a solubility at 4 h of 851 µg/mL and a solubility at 24 h of 733 µg/mL. Besides, the solubility (kinetic) (in general, the concentration staying in solution when a stock, usually in DMSO, is diluted into the medium) in data set [2] (fed-state simulated intestinal fluid (FeSSIF), pH 5.8, thermodynamic from solid, FeSSIF, before precipitation, read-out: Kinetic solubility, initially in solution) is no less than 3000 µg/mL. In data set [2] (setting [7]), this molecule yielded a solubility at 1 h of 99 µg/mL, a solubility at 4 h of 96 µg/mL and a solubility at 24 h of 95 µg/mL. Also, the Hygroscopicity entry in data set [3] (5 to 95% RH) was “non-hygroscopic”. Also, the Weight change result in data set [3] (between 5 and 95% RH) was “approximately 0.1%”. Besides, in data set [4] (25° C. - 58% RH (c), 2 weeks), the Content came to 101.1 % w/w, the “Impurity RRT 0.60” value was less than 0.05 % area, the “Impurity RRT 0.86” value is given as less than 0.05 % area and the “Impurity RRT 0.89” value is recorded as less than 0.05 % area. In addition, in data set [4] (25° C. - 58% RH (c), 2 weeks), the “Impurity RRT 0.92” value stood at 0.13 % area, the “Impurity RRT 1.21” value is reported as less than 0.05 % area, the “Main Peak” value came out at 99.78 % Area and the “Total Impurities” value stood at 0.22 % area. Further, the XRPD entry in data set [4] (25° C. - 58% RH (c), 2 weeks) is “Consistent with Tris salt (Grp B)”. Besides, in data set [4] (25° C. - 58% RH (o), 2 weeks), the Content is recorded as 101.0 % w/w, the “Impurity RRT 0.60” value is on record as less than 0.05 % area, the “Impurity RRT 0.86” value is given as less than 0.05 % area and the “Impurity RRT 0.89” value is less than 0.05 % area. In data set [4] (25° C. - 58% RH (o), 2 weeks), the “Impurity RRT 0.92” value is given as 0.13 % area, the “Impurity RRT 1.21” value is given as less than 0.05 % area, the “Main Peak” value was found to be 99.78 % Area and the “Total Impurities” value came to 0.22 % area. Besides, the XRPD result in data set [4] (25° C. - 58% RH (o), 2 weeks) is listed as “Consistent with Tris salt (Grp B)”. Besides, the “Chemical or physical changes on storage” value in data set [4] (25° C./58% RH, 40° C./75% RH (closed and open), 80° C./ambient RH (closed), 2 weeks) is given as “No significant chemical or physical changes were observed”. In data set [4] (40° C. - 75% RH (c), 2 weeks), the Content was 101.3 % w/w, the “Impurity RRT 0.60” value is less than 0.05 % area, the “Impurity RRT 0.86” value is on record as less than 0.05 % area and the “Impurity RRT 0.89” value was less than 0.05 % area. In data set [4] (40° C. - 75% RH (c), 2 weeks), the “Impurity RRT 0.92” value is 0.13 % area, the “Impurity RRT 1.21” value was less than 0.05 % area, the “Main Peak” value stood at 99.75 % Area and the “Total Impurities” value amounted to 0.25 % area. Besides, in data set [4] (40° C. - 75% RH (c), 2 weeks), the XRPD entry is “Consistent with Tris salt (Grp B)”. Also, in data set [4] (40° C. - 75% RH (o), 2 weeks), the Content was 101.1 % w/w, the “Impurity RRT 0.60” value was less than 0.05 % area, the “Impurity RRT 0.86” value is recorded as less than 0.05 % area and the “Impurity RRT 0.89” value was less than 0.05 % area. In data set [4] (40° C. - 75% RH (o), 2 weeks), the “Impurity RRT 0.92” value worked out at 0.13 % area, the “Impurity RRT 1.21” value is less than 0.05 % area, the “Main Peak” value is 99.77 % Area and the “Total Impurities” value worked out at 0.23 % area. Besides, the XRPD entry in data set [4] (40° C. - 75% RH (o), 2 weeks) is listed as “Consistent with Tris salt (Grp B)”. In data set [4] (80° C. (c), 2 weeks), the Content is recorded as 101.0 % w/w, the “Impurity RRT 0.60” value is less than 0.05 % area, the “Impurity RRT 0.86” value is less than 0.05 % area and the “Impurity RRT 0.89” value was less than 0.05 % area. Also, in data set [4] (80° C. (c), 2 weeks), the “Impurity RRT 0.92” value stood at 0.13 % area, the “Impurity RRT 1.21” value was less than 0.05 % area, the “Main Peak” value was 99.75 % Area and the “Total Impurities” value was determined as 0.25 % area. Also, in data set [4] (80° C. (c), 2 weeks), the XRPD entry is “Consistent with Tris salt (Grp B)”. Also, in data set [4] (Initial), the Content turned out to be 101.2 % w/w, the “Impurity RRT 0.60” value was less than 0.05 % area, the “Impurity RRT 0.86” value is less than 0.05 % area and the “Impurity RRT 0.89” value was less than 0.05 % area. Further, in data set [4] (Initial), the “Impurity RRT 0.92” value is recorded as 0.13 % area, the “Impurity RRT 1.21” value is less than 0.05 % area, the “Main Peak” value stood at 99.81 % Area and the “Total Impurities” value was 0.19 % area. Also, the XRPD result in data set [4] (Initial) is given as “Consistent with Tris salt (Grp B)”.
